Measured values published in ChEMBL document CHEMBL3272158, “2-Azabicyclo (2.2.2)octane analogues of the prodine analgetics” (J Med Chem, 1976).
Active and inactive are the calls of the source. The rule behind the calls is not given here.

How the values were obtained:
Rattus norvegicus [1] = assay: Analgetic activity in albino rat at 100 mg/kg, ip measured 15 mins interval by tail-flick method; assay type: functional, organism-based; design: dose 100 mg/kg
Rattus norvegicus [2] = assay: Analgetic activity in ip dosed albino rat measured 15 mins interval by tail-flick method; assay type: functional; details: 0.25 h
[3] = Toxicity in ip dosed albino rat; assay type: organism-based; details: in vivo

| Structure (SMILES) | Activity (Rattus norvegicus [1]) | ED50 (Rattus norvegicus [2]) [mg/kg] | LD50 [3] [mg/kg] |
| --- | --- | --- | --- |
| CCC(=O)O[C@@]1(c2ccccc2)C[C@H]2CC[C@H]1CN2C | inactive |  |  |
| CCC(=O)OC1(c2ccccc2)CCN(C)CC1C (racemic) [ALPHAPRODINE] |  | 1.4 | 22 |
| CCC(=O)O[C@@]1(c2ccccc2)C[C@H]2CC[C@H]1N(C)C2 (relative stereo) | inactive | 3.1 | 12.3 |
| CCC(=O)O[C@@]1(c2ccccc2)C[C@H]2CC[C@H]1N(Cc1ccccc1)C2 (relative stereo) | inactive |  |  |
| CCC(=O)O[C@]1(c2ccccc2)C[C@H]2CC[C@H]1N(C)C2 (relative stereo) | inactive |  |  |
